Data set [1] has as its target T1, α-1A adrenoceptor (rat vas deferens) (Rattus norvegicus, UniProt P43140).
T1 construct: PE-induced contraction of rat vas deferens; from tissue; host or cells: rat vas deferens
T1 sequence (P43140 1-466): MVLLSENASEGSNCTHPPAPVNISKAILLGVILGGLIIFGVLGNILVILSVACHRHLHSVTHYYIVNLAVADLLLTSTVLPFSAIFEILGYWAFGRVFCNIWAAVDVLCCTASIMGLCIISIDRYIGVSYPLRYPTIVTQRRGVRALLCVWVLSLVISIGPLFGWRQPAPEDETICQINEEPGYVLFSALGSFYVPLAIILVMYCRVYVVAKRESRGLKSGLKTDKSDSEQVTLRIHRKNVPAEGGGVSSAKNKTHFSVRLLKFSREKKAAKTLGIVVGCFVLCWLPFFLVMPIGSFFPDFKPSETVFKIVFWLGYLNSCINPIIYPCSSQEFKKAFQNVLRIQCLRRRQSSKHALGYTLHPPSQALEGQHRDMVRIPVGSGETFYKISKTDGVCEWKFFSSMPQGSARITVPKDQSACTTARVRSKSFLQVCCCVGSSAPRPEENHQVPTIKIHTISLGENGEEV
The data set can be described thus: Functional antagonism: phenylephrine (PE)-induced contraction of rat vas deferens. Format: cell-based. To be noted: vs phenylephrine; Schild plot; read-out: pA2 Rat Vas Deferens [α-1A] (converted). The source says: (§1) Functional assays indicative of pharmacologically defined α-1 adrenoceptors were used to further characterize compounds. Inhibition of phenylephrine (PE)-induced contraction of canine prostate smooth muscle can be correlated with α-1A adrenoceptor activation. […] For each of these models, agonist dose response curves were repeated against increasing concentrations of test agent to derive a Schild plot [log ([…]) against log (molarity of test agent)] to determine the pA2.

Data set [2] has as its target T2, α-1B adrenoceptor (rat spleen) (Rattus norvegicus, UniProt P15823).
T2 construct: PE-induced contraction of rat spleen; from tissue; host or cells: rat spleen
T2 sequence (P15823 1-515): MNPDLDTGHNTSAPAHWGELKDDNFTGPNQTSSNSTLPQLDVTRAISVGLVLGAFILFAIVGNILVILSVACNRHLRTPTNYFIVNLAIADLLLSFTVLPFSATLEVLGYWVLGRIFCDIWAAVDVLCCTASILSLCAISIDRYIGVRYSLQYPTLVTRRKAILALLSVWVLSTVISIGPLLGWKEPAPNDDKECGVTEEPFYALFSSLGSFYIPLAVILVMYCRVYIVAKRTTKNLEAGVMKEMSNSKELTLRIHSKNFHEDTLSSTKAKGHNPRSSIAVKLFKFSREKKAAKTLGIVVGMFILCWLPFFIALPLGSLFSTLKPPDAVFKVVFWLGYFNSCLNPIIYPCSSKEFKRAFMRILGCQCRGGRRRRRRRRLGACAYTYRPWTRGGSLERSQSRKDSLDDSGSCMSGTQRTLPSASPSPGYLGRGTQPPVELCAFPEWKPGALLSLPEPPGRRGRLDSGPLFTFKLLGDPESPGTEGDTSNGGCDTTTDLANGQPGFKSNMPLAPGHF
Kind of data set: Functional antagonism: phenylephrine (PE)-induced contraction of rat spleen. The following applies: for Kb: vs phenylephrine, Schild plot, read-out: pA2 Rat Spleen [α-1B] (converted); for more potent effect on spleen smooth muscle: PE-induced contraction, pA2 models compared. Format: cell-based.
Excerpt: as §1

Data set [3] concerns the target T3, α-1A adrenoceptor (dog prostate) (Canis lupus, UniProt A0A8I3NK63).
T3 sequence (A0A8I3NK63 1-466): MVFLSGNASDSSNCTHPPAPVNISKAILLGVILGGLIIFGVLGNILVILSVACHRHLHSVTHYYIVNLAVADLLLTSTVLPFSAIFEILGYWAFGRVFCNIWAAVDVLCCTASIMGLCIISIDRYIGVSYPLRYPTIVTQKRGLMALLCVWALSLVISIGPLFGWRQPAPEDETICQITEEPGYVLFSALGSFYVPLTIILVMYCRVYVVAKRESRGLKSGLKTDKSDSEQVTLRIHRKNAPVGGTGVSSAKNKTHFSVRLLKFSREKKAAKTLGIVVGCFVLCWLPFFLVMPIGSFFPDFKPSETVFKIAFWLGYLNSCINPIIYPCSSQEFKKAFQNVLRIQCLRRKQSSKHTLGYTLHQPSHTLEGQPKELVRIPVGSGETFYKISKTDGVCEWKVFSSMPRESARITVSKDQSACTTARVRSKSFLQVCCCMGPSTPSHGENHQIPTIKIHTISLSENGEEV
The data set can be described thus: Functional antagonism: phenylephrine (PE)-induced contraction of canine prostate strips. The following applies: Table 2a; vs phenylephrine; Schild plot. Format: cell-based. The essentials:
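Canine prostate smooth-muscle strips in vitro, contracted by phenylephrine. Agonist dose–response curves repeated at rising test-agent concentrations; pA2 derived by Schild plot […].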

For data set [4] the following is noted: cited from earlier work; for urinary flow rates and subjective symptom scores: longer term studies.
For data set [5] the following is noted: women during antihypertensive treatment; cited from earlier work.

Results on 15 molecules are retold here after patent US5597823A, “Tricyclic substituted hexahydrobenz [e]isoindole alpha-1 adrenergic antagonists” (priority 1995, dated 1997).

Structures can show the parent of a compound that is named as a salt.

`COc1cccc2c1CC[C@H]1CN(CCn3c(=O)[nH]c4c(sc5ccc(Cl)nc54)c3=O)C[C@@H]21` [Example 62, dihydrochloride]: the values for the Kb in data set [1] and in data set [2] were 0.724 nM and 21.9 nM, respectively. Also, the “pA2 Dog Prostate [α-1A]” value in data set [3] stood at 9.24.

Turning to `COc1ccc2sc3c(=O)n(CCN4C[C@@H]5CCc6c(OC)cccc6[C@@H]5C4)c(=O)[nH]c3c2n1` [Example 64, dihydrochloride], the Kb in data set [1] is 0.794 nM; in data set [2], 25.1 nM. Besides, the “pA2 Dog Prostate [α-1A]” value in data set [3] is given as 9.63.

Take `COc1cccc2c1CC[C@H]1CN(CCn3c(=O)[nH]c4c(sc5cccc(C)c54)c3=O)C[C@@H]21` [Example 69, 3-[2-((3aR,9bR)-cis-6-Methoxy-2,3,3a,4,5,9b-hexahydro-[1H]-benz[e]isoindol-1-yl)ethyl]-[1]-9-methyl-benzothieno[3,2-d]pyrimidine-2,4(1H,3H)-dione hydrochloride]: the Kb in data set [1] is 2.51 nM; in data set [2], 69.2 nM. The “pA2 Dog Prostate [α-1A]” value in data set [3] was 8.25.

Take `COc1cccc2c1CC[C@@H]1CN(CCn3c(=O)[nH]c4c(sc5ncccc54)c3=O)C[C@H]21` [Example 75, hydrochloride]: the Kb was 5.89 nM in data set [1] and 79.4 nM in data set [2]. The “pA2 Dog Prostate [α-1A]” value in data set [3] stood at 8.04.

For `COc1cccc2c1CC[C@H]1CN(CCn3c(=O)[nH]c4c(oc5ncccc54)c3=O)C[C@@H]21` [Example 76, hydrochloride], the values for the Kb in data set [1] and in data set [2] were 25.1 nM and 23.4 nM, respectively. Moreover, the “pA2 Dog Prostate [α-1A]” value in data set [3] is 8.74.

On to `COc1cccc2c1CC[C@H]1CN(CCn3c(=O)[nH]c4c(oc5nccnc54)c3=O)C[C@@H]21` [Example 87, hydrochloride], for which the Kb was 18.2 nM in data set [1] and 87.1 nM in data set [2]. For the same molecule, the “pA2 Dog Prostate [α-1A]” value in data set [3] was found to be 8.67.

Regarding `COc1cccc2c1CC[C@H]1CN(CCn3c(=O)[nH]c4c(sc5nc(Cl)cnc54)c3=O)C[C@@H]21` [Example 88, 3-[2-(cis-(3aR,9bR)-6-Methoxy-2,3,3a,4,5,9b-hexahydro-[1H]-benz[e]isoindol-1-yl)ethyl]-7-chloro-pyrazino[2',3':4,5]thieno[3,2-d]pyrimidine-2,4(1H,3H)-dione hydrochloride], the Kb was 1.1 nM in data set [1] and 44.7 nM in data set [2]. Further, the “pA2 Dog Prostate [α-1A]” value in data set [3] worked out at 9.35.

In the case of `COc1cnc2c(n1)sc1c(=O)n(CCN3C[C@@H]4CCc5c(OC)cccc5[C@@H]4C3)c(=O)[nH]c12` [Example 89, hydrochloride], the figures for the Kb in data set [1] and in data set [2] were 1.17 nM and 7.76 nM, respectively. Moreover, in data set [3], the “pA2 Dog Prostate [α-1A]” value was found to be 9.03.

Consider `COc1cccc2c1CC[C@H]1CN(CCn3c(=O)c4sc5nccnc5c4n(C(C)C)c3=O)C[C@@H]21` [Example 90, hydrochloride], for which the Kb is 1.45 nM in data set [1] and 26.9 nM in data set [2]. For the same molecule, in data set [3], the “pA2 Dog Prostate [α-1A]” value is 9.05.

For the molecule `COCCOCCn1c(=O)n(CCN2C[C@@H]3CCc4c(OC)cccc4[C@@H]3C2)c(=O)c2sc3nccnc3c21` [Example 102, hydrochloride], the Kb in data set [1] was 3.63 nM; in data set [2], 17.4 nM. In data set [3], the “pA2 Dog Prostate [α-1A]” value was 8.96.

For the molecule `COc1cccc2c1CC[C@H]1CN(CCn3c(=O)[nH]c4c(sc5ccc(O)nc54)c3=O)C[C@@H]21` [Example 107, dihydrochloride], the results for the Kb in data set [1] and in data set [2] were 20 nM and 37.2 nM, respectively. In data set [3], the “pA2 Dog Prostate [α-1A]” value is 9.22.

As for `COc1cccc2c1CC[C@H]1CN(CCn3c(=O)[nH]c4c(sc5ccc(C#N)nc54)c3=O)C[C@@H]21` [Example 108, dihydrochloride], the Kb was 3.39 nM in data set [1] and 11.2 nM in data set [2]. In data set [3], the “pA2 Dog Prostate [α-1A]” value is on record as 9.03.

`O=C(NC1CCN(CCc2c[nH]c3ccccc23)CC1)c1ccccc1` [indoramin]: the “urinary flow rates and subjective symptom scores” value in data set [4] was “significant improvements in urinary flow rates and subjective symptom scores”.

In the case of `COc1cc2nc(N3CCN(C(=O)c4ccco4)CC3)nc(N)c2cc1OC` [prazosin], the urinary incontinence result in data set [5] is “urinary incontinence developed in women”. For the same molecule, the “urinary flow rates and subjective symptom scores” value in data set [4] was “significant improvements in urinary flow rates and subjective symptom scores”. The “more potent effect on spleen smooth muscle” value in data set [2] is on record as “more potent effect on spleen smooth muscle by approximately an order of magnitude”.

`COc1cc2nc(N3CCN(C(=O)C4CCCO4)CC3)nc(N)c2cc1OC` (stereo not shown) [terazosin]: the “clinical efficacy in BPH” value in data set [4] (human, in vivo) is given as “Clinical efficacy of α-1 antagonists in BPH has been demonstrated”. Besides, in data set [4], the “urinary flow rates and subjective symptom scores” value is “significant improvements in urinary flow rates and subjective symptom scores”. Besides, the “more potent effect on spleen smooth muscle” value in data set [2] is recorded as “more potent effect on spleen smooth muscle by approximately an order of magnitude”.
